The target in the experiment is T1, N-terminal Xaa-Pro-Lys N-methyltransferase 1 (Homo sapiens, UniProt Q9BV86).
T1 sequence (Q9BV86 whole entry): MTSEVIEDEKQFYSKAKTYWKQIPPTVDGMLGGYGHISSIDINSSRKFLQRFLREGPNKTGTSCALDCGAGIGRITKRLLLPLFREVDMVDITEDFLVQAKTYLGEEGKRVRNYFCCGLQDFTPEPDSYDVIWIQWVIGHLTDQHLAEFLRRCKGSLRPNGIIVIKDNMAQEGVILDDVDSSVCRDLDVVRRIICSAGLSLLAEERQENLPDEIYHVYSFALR
Kind of experiment: Not found.

`N=C(N)NCCC[C@H](NC(=O)[C@H](CCCCN)N1CCC[C@H]1C(N)=O)C(=O)N[C@@H](Cc1c[nH]c2ccccc12)C(N)=O` [US12479887, Compound 43]: the IC50 turned out to be 95 nM.

Broadly, the IC50 is the concentration at which inhibition is half-maximal. Low values mean greater potency in that assay, high ones weaker potency in that assay.

The values are drawn from BindingDB's records for patent US12479887 (Purdue Research Foundation, 2025).
